# Test results from patent publication US20210113522A1, “COUMARIN DERIVATIVE AS ANTI-ASTHMATIC AGENT, PHARMACEUTICAL COMPOSITION THEREOF, ITS PREPARATION AND USE” (I-NOVA MEDICINSKA ISTRAZIVANJA D.O.O., priority 2017, published 2021).
# Test system: croton oil-induced ear edema
# Assay: Croton oil-induced ear edema in mice
# Assay type: in vivo, Balb/c mice
# Settings: dexamethasone 1 mg/kg, 1 2 mg/kg
# From the text: The presents study aims to detect the inflammatory/anti-inflammatory potential effects of compound 1 in a model of acute skin inflammation induced by local application of phlogistic agent croton oil in Balb/c mice. The technique for croton oil-induced ear edema in mice, originally described by Tubaro et al., was followed, with modifications; see literature references 16 and 17: • 16) A. Tubaro, P. Dri, G. Delbello, C. Zilli, R. Della Loggia: The croton oil ear test revisited, Agents Actions 17 (1986) 347-349. • 17) G. Coruzzi, C. Pozzoli, M. Adami, D. Grandi, N. Guido, R. Smits, I. de Esch and R. Leurs: Strain-dependent effects of the histamine H4 receptor antagonist JNJ7777120 in a murine model of acute skin inflammation, Experimental Dermatology 21 (2011) 32-37.
# Mice (total 40) were separated into 4 groups (n=10). Each group was treated under different regimen:
# Cutaneous inflammation was induced in conscious mice by topical application of croton oil (5% in acetone).
# Six hours after croton oil application, mice were euthanized by light ether anaesthesia, followed by cervical dislocation; both left (acetone) and right (croton oil in acetone) ears were removed, by cutting horizontally across the indentation at the base of the ear. For each mouse, the extent of the oedema was expressed as the difference in weight (Δ [mg]) between right (inflamed) and left (uninflamed) ear. The percentage increase in the oedema of the treated ear was calculated by the following formula: […]
# The presents study aims to detect the inflammatory/anti-inflammatory potential effects of compound 1 in a model of acute skin inflammation induced by local application of phlogistic agent croton oil in Balb/c mice. The technique for croton oil-induced ear edema in mice, originally described by Tubaro et al., was followed, with modifications; see literature references 16 and 17.
# In preliminary experiments, the effect of subcutaneous (s.c.) administration of saline, 100% DMSO or 20% 2-hydroxypropyl-β-cyclodextrin was investigated to check the vehicle effects on ear inflammation.
# The statistical significance between the groups was assessed by one-way analysis of variance (ANOVA) followed by a post hoc Tukey test. The accepted level of significance for the test was P<0.05. All tests were carried out using GraphPad Software (San Diego, Calif., USA).
smiles,measurement,setting,value
"C[C@@H]1C[C@H]2[C@@H]3CCC4=CC(=O)C=C[C@]4(C)[C@@]3(F)[C@@H](O)C[C@]2(C)[C@@]1(O)C(=O)CO [dexamethasone, reference compound]",Percentage of increasing the ear edema,6 h after croton oil,44.2%
same,Maximal inhibition of croton oil-induced ear oedema,"Balb/c mice, 6 h",approximately 60%
same,Left ear m,"left ear: 80% 2HPβCD + 20% DMSO (uninflamed), 6 h",0.0360 g
same,Right ear m,"right ear: substance + croton oil after 30 min, 6 h",0.0519 g
